Data on 4 cell lines can be found in the supplement of paper PMC10307832.

What all share (assay): relative viability (nuclei count vs DMSO), 5 days (fraction); higher = more cells survive
Compound in test [1]: CCN(CCO)CCCC(C)Nc1ccnc2cc(Cl)ccc12 [Hydroxychloroquine] + CS(=O)(=O)CCNCc1ccc(-c2ccc3ncnc(Nc4ccc(OCc5cccc(F)c5)c(Cl)c4)c3c2)o1 [Lapatinib] (partner 2 µM)
The method in brief: (§1)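 Relative viability was taken as the ratio of nuclei in treated wells to nuclei in vehicle wells. Lung cancer cell lines in 1536-well plates received compounds by pin tool one day after seeding, either one drug alone or a fixed anchor-drug dose plus five library-drug doses (not always all listed) in √10 steps. Nuclei were counted on 4× images after 5 days of treatment, and values are medians of duplicate plates.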

Compound in test [2]: CCN(CCO)CCCC(C)Nc1ccnc2cc(Cl)ccc12 [Hydroxychloroquine] + CCNC(=O)c1noc(-c2cc(C(C)C)c(O)cc2O)c1-c1ccc(CN2CCOCC2)cc1 [Luminespib] (partner 0.01 µM)
The method in brief: as §1

Compound in test [3]: CCN(CCO)CCCC(C)Nc1ccnc2cc(Cl)ccc12 [Hydroxychloroquine] + O=C(c1cc(Cc2n[nH]c(=O)c3ccccc23)ccc1F)N1CCN(C(=O)C2CC2)CC1 [Olaparib] (partner 8 µM)
The gist of the method: as §1

Compound in test [4]: CCN(CCO)CCCC(C)Nc1ccnc2cc(Cl)ccc12 [Hydroxychloroquine] + Nc1ncn([C@H]2C[C@H](O)[C@@H](CO)O2)c(=O)n1 [Decitabine] (partner 2 µM)
The gist of the method:
as §1

Consider A-427, for which the relative viability came to 0.996 in test [1] (first compound 0.5 µM); 0.955 in test [1] (first compound 1.581 µM); 1.07 in test [1] (first compound 5 µM); 1.01 in test [1] (first compound 15.81 µM); 1.09 in test [1] (first compound 50 µM); 1.22 in test [2] (first compound 0.5 µM). Further, the relative viability in test [2] (first compound 1.581 µM) is 0.84; in test [2] (first compound 5 µM) it was 0.917; in test [2] (first compound 15.81 µM) it was 0.929; in test [2] (first compound 50 µM) it was 0.869; in test [3] (first compound 0.5 µM) it was 0.816; in test [3] (first compound 1.581 µM) it was 0.702. In addition, the relative viability is 0.61 in test [3] (first compound 5 µM); 0.691 in test [3] (first compound 15.81 µM); 0.816 in test [3] (first compound 50 µM); 0.539 in test [4] (first compound 0.5 µM); 0.551 in test [4] (first compound 1.581 µM); 0.585 in test [4] (first compound 5 µM). Besides, the values for the relative viability in test [4] (first compound 15.81 µM) and in test [4] (first compound 50 µM) were 0.509 and 0.479, respectively.
Regarding NCI-H322M, the relative viability in test [1] (first compound 0.5 µM) was determined as 0.557; in test [1] (first compound 1.581 µM), 0.642; in test [1] (first compound 5 µM) it was 0.554; in test [1] (first compound 15.81 µM), 0.619; in test [1] (first compound 50 µM), 0.634; in test [2] (first compound 0.5 µM), 0.758. In addition, the relative viability was 0.803 in test [2] (first compound 1.581 µM); 0.902 in test [2] (first compound 5 µM); 0.777 in test [2] (first compound 15.81 µM); 0.798 in test [2] (first compound 50 µM); 0.741 in test [3] (first compound 0.5 µM); 0.75 in test [3] (first compound 1.581 µM). For the same cell line, the relative viability was found to be 0.753 in test [3] (first compound 5 µM); 0.725 in test [3] (first compound 15.81 µM); 0.751 in test [3] (first compound 50 µM); 0.66 in test [4] (first compound 0.5 µM); 0.698 in test [4] (first compound 1.581 µM); 0.732 in test [4] (first compound 5 µM). Also, the relative viability was 0.665 in test [4] (first compound 15.81 µM) and 0.637 in test [4] (first compound 50 µM).
On to NCI-H1975, for which the relative viability is 0.989 in test [1] (first compound 0.5 µM); 0.867 in test [1] (first compound 1.581 µM); 0.874 in test [1] (first compound 5 µM); 0.891 in test [1] (first compound 15.81 µM); 1.18 in test [1] (first compound 50 µM); 0.296 in test [2] (first compound 0.5 µM). Besides, the relative viability in test [2] (first compound 1.581 µM) was determined as 0.142; in test [2] (first compound 5 µM), 0.257; in test [2] (first compound 15.81 µM) it was 0.281; in test [2] (first compound 50 µM) it was 0.234; in test [3] (first compound 0.5 µM), 0.816; in test [3] (first compound 1.581 µM), 0.767. Besides, the relative viability in test [3] (first compound 5 µM) worked out at 0.856; in test [3] (first compound 15.81 µM), 0.85; in test [3] (first compound 50 µM), 0.911; in test [4] (first compound 0.5 µM) it was 0.384; in test [4] (first compound 1.581 µM), 0.372; in test [4] (first compound 5 µM) it was 0.378. Further, the relative viability in test [4] (first compound 15.81 µM) worked out at 0.408; in test [4] (first compound 50 µM), 0.415.
With NCI-H1437, the relative viability in test [1] (first compound 0.5 µM) stood at 0.833; in test [1] (first compound 1.581 µM) it was 1.05; in test [1] (first compound 5 µM), 0.885; in test [1] (first compound 15.81 µM) it was 0.758; in test [1] (first compound 50 µM) it was 0.845; in test [2] (first compound 0.5 µM), 1.2. Moreover, the relative viability in test [2] (first compound 1.581 µM) worked out at 1.1; in test [2] (first compound 5 µM) it was 1.18; in test [2] (first compound 15.81 µM), 1.04; in test [2] (first compound 50 µM), 1.24; in test [3] (first compound 0.5 µM) it was 0.604; in test [3] (first compound 1.581 µM), 0.665. Moreover, the relative viability in test [3] (first compound 5 µM) worked out at 0.65; in test [3] (first compound 15.81 µM), 0.653; in test [3] (first compound 50 µM), 0.652; in test [4] (first compound 0.5 µM), 0.56; in test [4] (first compound 1.581 µM), 0.617; in test [4] (first compound 5 µM), 0.587. Also, the values for the relative viability in test [4] (first compound 15.81 µM) and in test [4] (first compound 50 µM) were 0.562 and 0.636, respectively.
